Laboratory results taken from publication PMC5397059, “Design, synthesis and structure-activity relationship study of wollamide B; a new potential anti TB agent” (PLoS ONE, 2017).
In brackets after ≈: the same amount, converted by molar mass. Several values for one entry are separate records, joined by “and”; a condition that tells them apart may be missing. Equal values may be shown once. Non-standard residues stand in square brackets, D forms with d. Residues, ends and D or L forms follow the SMILES beside them. dPhe(4-Cl) = N[C@H](Cc1ccc(Cl)cc1)C(=O)O; dOrn = NCCC[C@@H](N)C(=O)O

Tests used:
[1] = target: human serum albumin (Homo sapiens, UniProt P02768); experiment: Human serum albumin (HSA) binding assay; format: in vitro ADME; conditions: human serum albumin binding
Chain of human serum albumin (P02768 25-609): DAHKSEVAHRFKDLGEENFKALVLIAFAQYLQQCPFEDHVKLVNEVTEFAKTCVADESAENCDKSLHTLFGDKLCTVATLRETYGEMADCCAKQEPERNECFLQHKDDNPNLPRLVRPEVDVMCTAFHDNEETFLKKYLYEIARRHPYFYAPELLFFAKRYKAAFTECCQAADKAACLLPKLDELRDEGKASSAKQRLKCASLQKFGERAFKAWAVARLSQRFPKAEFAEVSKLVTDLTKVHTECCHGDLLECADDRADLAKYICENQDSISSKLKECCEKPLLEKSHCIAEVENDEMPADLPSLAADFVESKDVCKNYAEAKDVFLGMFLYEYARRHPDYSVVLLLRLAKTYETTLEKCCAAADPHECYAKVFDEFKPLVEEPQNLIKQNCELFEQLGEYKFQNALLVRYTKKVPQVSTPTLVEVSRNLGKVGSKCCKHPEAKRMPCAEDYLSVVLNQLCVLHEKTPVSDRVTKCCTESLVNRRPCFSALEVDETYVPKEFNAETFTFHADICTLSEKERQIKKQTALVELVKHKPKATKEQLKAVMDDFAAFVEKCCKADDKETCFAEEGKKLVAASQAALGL
Experimental: HSA binding assay was performed according to the method described by Valko K, et al. The basic principle of the measurements is the determination of gradient retention times of compounds on immobilized HSA column and converting these retention times to the appropriate property values using calibration. The peaks are detected and identified by UV. Calibration sets of compounds are measured before each run for which the HSA binding values are known. The retention times of the calibration set of compounds are plotted against these known values. The slope and the intercept of the obtained straight lines are used to calculate the HSA binding for the unknown compounds.

[2] = tested on: Mtb H37Rv; conditions: duplicate; analogues
[3] = Plasma stability assay, mouse plasma; format: in vitro ADME; conditions: CD1, mouse, plasma; 2 hours at 37°C, triplicates; read-out: Plasma stability (% remaining) Mouse
Experimental: (§1) Plasma stability of the compounds was assessed in CD1 mouse and human plasma. Plasma was spiked with 1 μL of a 10 mM of each test compound solution to produce a 1 uM incubation. Three separate 300 μl aliquots were then taken from each tube and incubated at 37°C for 2 h. At each time point (0, 15, 30, 60 and 120 min), 50 μL of plasma were collected from each sample. Samples were extracted by protein precipitation with 250 μL of 0.1% AcOH acetonitrile methanol 3–1 (v/v) containing 1uM internal standard and centrifuged for 10min at 2800rpm. Supernatants were collected prior the injection onto an LC-MS/MS system. Analyte/Internal standard peak area ratios were referenced to the zero time-point samples as 100% in order to determine the percentage of compound remaining for each time-point. Ln plots of the % remaining for each compound were used to determine the half-life for the plasma incubations.

[4] = Chemi-Luminescent Nitrogen Detection (CLND) kinetic solubility assay; format: physicochemical; conditions: phosphate buffered saline, pH 7.4; kinetic aqueous solubility by CLND; read-out: Solubility
Experimental: GSK in-house kinetic solubility assay: 5 μL of 10mM DMSO stock solution diluted to 100 uL with pH7.4 phosphate buffered saline, equilibrated for 1 hour at room temperature, filtered through Millipore Multiscreen HTS-PCF filter plates (MSSL BPC).
The filtrate is quantified by suitably calibrated flow injection CLND. The standard error of the CLND solubility determination is ±30 μM, the upper limit of the solubility is 500 μM when working from 10 mM DMSO stock solution.

[5] = Intrinsic clearance (CLint) assay, human liver microsomes; format: in vitro ADME; conditions: for half-life at 0.5 µM: human, pooled human liver microsomes, pH 7.4, human liver microsomes, read-out: Microsomal t1/2 Human; for % LBF Human: liver blood flow; for CLpred Human: predicted metabolic clearance; for % LBF given as a fraction (metabolic stability class): predicted hepatic clearance, microsomal stability
Experimental: (§2) Pooled mouse and human liver microsomes are purchased from Xenotech. Microsomes (final protein concentration 0.5 mg/mL, MgCl2 (final concentration = 5 mM) and test compound (final substrate concentration = 0.5] M; final DMSO concentration = 0.5%) in 0.1 M phosphate buffer pH 7.4 are pre-incubated at 37°C prior to the addition of NADPH (final concentration = 1 mM) to initiate the reaction. The final incubation volume is 600 μL.
(§3) Control incubation is included for each compound tested where 0.1 M phosphate buffer pH 7.4 is added instead of NADPH (minus NADPH). One control compound is included with each species. All incubations are performed singularly for each test compound. Each compound is incubated for 45 minutes and samples (100 μL) of incubate are taken at 0, 5, 15, 30 and 45 min. The control (minus NADPH) is sampled at 30 min only. The reactions are stopped by the addition of sample to 200 μL Acetonitrile: Methanol 3:1 containing internal standard. The terminated samples are centrifuged at 2,500 rpm for 20 min at 4°C to precipitate the protein. Quantitative analysis: following protein precipitation, the samples were analyzed using specific LC-MS/MS conditions. Data analysis: from a plot of ln peak area ratio (compound peak area/internal standard peak area) against time, the gradient of the line was determined. Subsequently, half-life and intrinsic clearance were calculated using the equations below: Eliminationrateconstant(K)=(−gradient) Halflife(t1/2)(min)=0.693/K Cli(mL/min/gprotien)=V×0.693/t1/2 WhereV=Incubationvolume(mL/gmicrosomalprotien)

[6] = Plasma stability assay, human plasma; format: in vitro ADME; conditions: human, plasma; 2 hours at 37°C, triplicates; read-out: Plasma stability (% remaining) Human
Experimental: as §1

[7] = Intrinsic clearance (CLint) assay, mouse liver microsomes; format: in vitro ADME; conditions: for % LBF Mouse: liver blood flow; for CLint Mouse: mouse liver microsomes; for half-life at 0.5 µM: mouse, pooled mouse liver microsomes, pH 7.4, read-out: Microsomal t1/2 Mouse; for CLpred Mouse: predicted metabolic clearance
Experimental: as §2, §3

[8] = Chrom logD assay; format: physicochemical; conditions: pH 7.4; read-out: Log D
Experimental: The Chromatographic Hydrophobicity Index (CHI) values were measured using a reversed phase HPLC column (50 x 2 mmx 3 μMGemini NX C18, Phenomenex, UK) with fast acetonitrile gradient at starting mobile phase of 100% pH = 7.4 buffer. CHI values are derived directly from the gradient retention times by using a calibration line obtained for standard compounds. The CHI value approximates to the volume % organic concentration when the compound elutes. CHI is linearly transformed into ChromlogD by the formula: ChromlogD=0.0857CHI−2.00
The average error of the assay is ±3 CHI unit or ±0.25 ChromlogD.

[9] = Artificial membrane permeability assay; format: in vitro ADME; conditions: PAMPA, pH 7.4; passive artificial membrane permeability; read-out: Permeability
Experimental: A 8% L-a-phosphatidylcholine (EPC) in 1% cholesterol decane solution and a 1.8% EPC in cholesterol decane solution were prepared. The lipid solution was then aliquoted into 4 mL capped vials, sealed with parafilm and stored in-20°Cfreezer. The lipid solution was then transferred from 4 mL vial into 96-well half area plate (130μL/well) for daily assay usage. An additional 50 mM phosphate buffer with 0.5% encapsin, pH at 7.4 was prepared. The assay was run by the Biomek FX and Biomek software. The assay procedure is written under the Biomek software. For one batch assay, it can test two 96-well sample plates with at least one standard on each sample plate. The total assay time was about 4 hours. 3.5 μL of lipid solution were added to the filler plate, shaken for 12 seconds, and 250 μL of buffer were added to donor side and 100 μL to the receiver side. The assay plate was shaken for 45 min before adding the compounds. The test compounds (2.5 μL) were added to the donor side. The assay was run as replicates: Assay plates1 and 2 tested the sample plate 1; assay plates 3 and 4 tested the sample plate 2. The assay plates were then incubated and shaken for 3 hours at room temperature.
The assay samples were transferred to the HPLC analysis plates and 100 μL of receiver solution were aspirated and transferred to the receiver for analysis. Similarly, another 100 μL from the donor solution were transferred to the donor analysis plate.
Compound concentration was measured by HPLC at different time-points and permeability was established as nm/sec.

Structure (SMILES)	% HSA [1]	MIC against Mtb H37Rv [2] [µM]	remaining at 2 h, 1 uM [3] [%]	solubility kinetic at 1 h [4] [µg/mL]	CLint Human ([5]; human liver microsomes) [mL/min/g tissue]	half-life at 0.5 µM [5] [h]	% LBF Human [5] [%]	CLpred Human [5] [mL/min/kg]	remaining at 2 h, 1 uM [6] [%]	% LBF Mouse [7] [%]	CLint Mouse [7] [mL/min/g tissue]	half-life at 0.5 µM [7] [h]	CLpred Mouse [7] [mL/min/kg]	Microsomal t1/2 Human ([5]; human liver microsomes) [h]	% LBF given as a fraction (metabolic stability class) [5]	chromatographic logD [8]	Papp at 3 h [9] [×10⁻⁶ cm/s]
CC(C)C[C@@H]1NC(=O)[C@H](C)NC(=O)[C@@H](CCCN)NC(=O)[C@H](CC(N)=O)NC(=O)[C@H](C(C)C)NC(=O)[C@@H](CC(C)C)NC1=O [Compound 3c] (cyclo(AL[dL]VN[dOrn]))	26% and 25.51%	>80	92	136 (≈ 218 µM)	<0.40	> 2.31	<35.08	6.31	86	<16.27	<0.48	> 2.31	<20.50				
CC(C)C[C@@H]1NC(=O)[C@H](Cc2c[nH]c3ccccc23)NC(=O)[C@@H](CCCN)NC(=O)[C@H](CC(N)=O)NC(=O)[C@H](C(C)C)NC(=O)[C@@H](Cc2ccc(Cl)cc2)NC1=O [Compound 16c] (cyclo(L[dPhe(4-Cl)]VN[dOrn]W))	92% and 92.54%		98	≥ 192	2.43	< 0.5	76.78	13.82	99	19.21	0.59	1.89	24.21	0.3773	> ¾	1.92	< 0.3
CC(C)C[C@H]1NC(=O)[C@H](C)NC(=O)[C@H](Cc2c[nH]c3ccccc23)NC(=O)[C@@H](CCCN)NC(=O)[C@H](CC(N)=O)NC(=O)[C@H](C(C)C)NC1=O [Compound 2c] (cyclo(A[dL]VN[dOrn]W))	43.14%	>80	93	> 134	<0.40	> 2.31	<35.08		107	<16.27	<0.48	> 2.31	<20.50			0.94	< 1
CC(C)C[C@@H]1NC(=O)[C@H](Cc2c[nH]c3ccccc23)NC(=O)[C@@H](CCCN)NC(=O)[C@H](CC(N)=O)NC(=O)[C@H](C(C)C)NC(=O)[C@@H](C)NC1=O [Compound 6c] (cyclo(L[dA]VN[dOrn]W))	42.21%	>80	102	≥ 196	0.73	1.25	49.94	8.99	95	<16.27	<0.48	> 2.31	<20.50			1.04	< 1
CC(C)C[C@@H]1NC(=O)[C@@H](Cc2ccc(Cl)cc2)NC(=O)[C@@H](CCCN)NC(=O)[C@H](CC(N)=O)NC(=O)[C@H](C(C)C)NC(=O)[C@@H](CC(C)C)NC1=O [Compound 14c] (cyclo(L[dL]VN[dOrn][dPhe(4-Cl)]))	70.25%	40 (≈ 29.4 µg/mL)	70	≥ 218	<0.40	> 2.31	<35.08	6.31	104	<16.27	<0.48	> 2.31	<20.50			1.9	< 1
CC(C)C[C@@H]1NC(=O)[C@H](Cc2c[nH]c3ccccc23)NC(=O)[C@@H](CCCN)NC(=O)[C@@H](CCCN)NC(=O)[C@H](C(C)C)NC(=O)[C@@H](CC(C)C)NC1=O [Compound 9c] (cyclo(L[dL]V[dOrn][dOrn]W))	86.46%		100	39 (≈ 52.7 µM)	0.45	2.03	38.08	6.85	100	18.68	0.57	1.95	23.53		< 1/3	1.32	1
CC[C@H](C)[C@@H]1NC(=O)[C@@H](CC(C)C)NC(=O)[C@H](CC(C)C)NC(=O)[C@H](Cc2c[nH]c3ccccc23)NC(=O)[C@@H](CCCN)NC(=O)[C@H](CC(N)=O)NC1=O [Compound 7c] (cyclo(IN[dOrn]WL[dL]))	76.35%		98	≥ 177	1.70	0.54	69.81	12.57	99	<16.27	<0.48	> 2.31	<20.50			1.83	< 1
